Source: patent US20260098061A1, “EPHA2-BINDING PENDING PEPTIDE AND COMPOSITION COMPRISING SAME” (PeptiDream Inc., priority 2022, published 2026)
Bridge positions count the residues as written; N and C are the ends. Square brackets hold non-standard residues; d marks the D form. Peptide text beside a SMILES is read from it. * marks the point of attachment. NH(1-deoxy-D-glucityl) = OC[C@@H](O)[C@@H](O)[C@H](O)[C@@H](O)CN*; Trp(1-Me) = Cn1cc(C[C@H](N)C(=O)O)c2ccccc21; NMe3Pal = CN[C@@H](Cc1cccnc1)C(=O)O; NMeF = CN[C@@H](Cc1ccccc1)C(=O)O; Gly(cBu) = N[C@H](C(=O)O)C1CCC1; Aad = N[C@@H](CCCC(=O)O)C(=O)O; NMeN = CN[C@@H](CC(N)=O)C(=O)O

Biological target: T1, Recombinant Human EphA2 Fc Protein (Homo sapiens, UniProt P29317)
T1 construct: purchased Elabscience
Test: SPR interaction analysis (Biacore T200), kinetics of peptides against EphA2
Type: binding
Settings: Recombinant Human EphA2 Fc Protein captured by Human Antibody Capture kit; single-cycle kinetics; 25° C.; HBS-P+ buffer with 1% DMSO
Outline: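 KD derived from ka and kd, fitted on baseline-subtracted sensorgrams from single-cycle kinetics of five peptide dilutions. Running buffer: HBS-P+ (pH 7.4) plus 1% DMSO, 25° C, Biacore T200. Recombinant human EphA2-Fc held on an antibody capture surface.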

| Structure (SMILES) | Kd |
| --- | --- |
| CC(C)[C@@H]1NC(=O)[C@H](Cc2cn(C)c3ccccc23)NC(=O)[C@H](CC(N)=O)N(C)C(=O)[C@H](CCCC(N)=O)NC(=O)[C@H](C2CCC2)NC(=O)[C@H](CC(N)=O)NC(=O)[C@H](Cc2cccnc2)N(C)C(=O)[C@@H](C)NC(=O)CSC[C@@H](C(N)=O)NC(=O)[C@H](CCCC(N)=O)NC(=O)[C@H]([C@@H](C)O)NC(=O)[C@H](Cc2cn(C)c3ccccc23)NC1=O [PDC_EphA2-00010011, da-Me3Py-N-Cbg-Hgn-MeN-W1Me-V-W1Me-T-Hgn-C-NH2] ({CH2CO}-[dA][NMe3Pal]N[Gly(cBu)][Aad](NH2)[NMeN][Trp(1-Me)]V[Trp(1-Me)]T[Aad](NH2)C-NH2; thioether N-12) | < 1 nM |
| CC(C)[C@@H]1NC(=O)[C@H](Cc2cn(C)c3ccccc23)NC(=O)[C@H](CC(N)=O)N(C)C(=O)[C@H](CCCC(N)=O)NC(=O)[C@H](C2CCC2)NC(=O)[C@H](CC(N)=O)NC(=O)[C@H](Cc2ccccc2)N(C)C(=O)[C@@H](C)NC(=O)CSC[C@@H](C(N)=O)NC(=O)[C@H](CCCC(N)=O)NC(=O)[C@H]([C@@H](C)O)NC(=O)[C@H](Cc2cn(C)c3ccccc23)NC1=O [PDC_EphA2-00013693, da-MeF-N-Cbg-Hgn-MeN-W1Me-V-W1Me-T-Hgn-C-NH2] ({CH2CO}-[dA][NMeF]N[Gly(cBu)][Aad](NH2)[NMeN][Trp(1-Me)]V[Trp(1-Me)]T[Aad](NH2)C-NH2; thioether N-12) | < 1 nM |

Results, then the molecule that gave them:

| Kd | Structure (SMILES) |
| --- | --- |
| < 1 nM | CC(C)[C@@H]1NC(=O)[C@H](Cc2cn(C)c3ccccc23)NC(=O)[C@H](Cc2cccnc2)N(C)C(=O)[C@H](CCCC(N)=O)NC(=O)[C@H](C2CCC2)NC(=O)[C@H](CC(N)=O)NC(=O)[C@H](Cc2cccnc2)N(C)C(=O)[C@@H](C)NC(=O)CSC[C@@H](C(N)=O)NC(=O)[C@H](CCCC(N)=O)NC(=O)[C@H]([C@@H](C)O)NC(=O)[C@H](Cc2cn(C)c3ccccc23)NC1=O [PDC_EphA2-00010012, da-Me3Py-N-Cbg-Hgn-Me3Py-W1Me-V-W1Me-T-Hgn-C-NH2] ({CH2CO}-[dA][NMe3Pal]N[Gly(cBu)][Aad](NH2)[NMe3Pal][Trp(1-Me)]V[Trp(1-Me)]T[Aad](NH2)C-NH2; thioether N-12) |
| < 1 nM | C[C@H]1NC(=O)CSC[C@@H](C(N)=O)NC(=O)[C@H](CCCC(N)=O)NC(=O)[C@H]([C@@H](C)O)NC(=O)[C@H](Cc2cn(C)c3ccccc23)NC(=O)[C@H](CCC(=O)NC[C@H](O)[C@@H](O)[C@H](O)[C@H](O)CO)NC(=O)[C@H](Cc2cn(C)c3ccccc23)NC(=O)[C@H](CC(N)=O)N(C)C(=O)[C@H](CCCC(N)=O)NC(=O)[C@H](C2CCC2)NC(=O)[C@H](CC(N)=O)NC(=O)[C@H](Cc2ccccc2)N(C)C1=O [PDC_EphA2-00013703, da-MeF-N-Cbg-Hgn-MEN-W1Me-Qglucamine-W1Me-T-Hgn-C-NH2] ({CH2CO}-[dA][NMeF]N[Gly(cBu)][Aad](NH2)[NMeN][Trp(1-Me)]E(NH(1-deoxy-D-glucityl))[Trp(1-Me)]T[Aad](NH2)C-NH2; thioether N-12) |
| < 1 nM | C[C@H]1NC(=O)CSC[C@@H](C(N)=O)NC(=O)[C@H](CCCC(N)=O)NC(=O)[C@H]([C@@H](C)O)NC(=O)[C@H](Cc2cn(C)c3ccccc23)NC(=O)[C@H](CCC(=O)NC[C@H](O)[C@@H](O)[C@H](O)[C@H](O)CO)NC(=O)[C@H](Cc2cn(C)c3ccccc23)NC(=O)[C@H](Cc2cccnc2)N(C)C(=O)[C@H](CCCC(N)=O)NC(=O)[C@H](C2CCC2)NC(=O)[C@H](CC(N)=O)NC(=O)[C@H](Cc2ccccc2)N(C)C1=O [PDC_EphA2-00013704, da-MeF-N-Cbg-Hgn-Me3Py-W1Me-Qglucamine-W1Me-T-Hgn-C-NH2] ({CH2CO}-[dA][NMeF]N[Gly(cBu)][Aad](NH2)[NMe3Pal][Trp(1-Me)]E(NH(1-deoxy-D-glucityl))[Trp(1-Me)]T[Aad](NH2)C-NH2; thioether N-12) |
